{"source": "patent US6500858B2", "about": "“Taxoid anti-tumor agents and pharmaceutical compositions thereof” (The Research Foundation of the state University of New York, priority 1994, dated 2002)", "key": {"[1]": {"system": "A121 (ovarian carcinoma)", "test": "tumor cell growth inhibition (SRB, 72 h drug exposure)", "type": "cell-based, human", "details": "72 h drug exposure", "procedure": "(§1) Lower numbers indicate higher potency. […] The data represent the mean values of at least three separate experiments. Lower numbers indicate greater activity.\n(§2) Assessment of cell growth inhibition was determined according to the methods of Skehan et al., J. Nat. Cancer Inst. […] Briefly, cells were plated between 400 and 1200 cells/well in 96 well plates and incubated at 37° C. for 15-18 h prior to drug addition to allow attachment of cells. […] After a 72 h incubation, […] of ice-cold 50% TCA was added to each well and incubated for 1 h at 4° C. Plates were then washed 5 times with tap water to remove TCA, low-molecular-weight metabolites and serum proteins. Sulforhodamine B (SRB) (0.4%, […]) was added to each well. Following a 5 min incubation at room temperature, plates were rinsed 5 times with 0.1% acetic acid and air dried. […] Optical density was measured at 570 nm."}, "[2]": {"system": "A549 (non-small cell lung carcinoma)", "test": "tumor cell growth inhibition (SRB, 72 h drug exposure)", "type": "cell-based, human", "details": "72 h drug exposure; read-out: A549 (NSCLC) IC50", "procedure": "as §1, §2"}, "[3]": {"system": "HT-29 (colon carcinoma)", "test": "tumor cell growth inhibition (SRB, 72 h drug exposure)", "type": "cell-based, human", "details": "72 h drug exposure", "procedure": "as §1, §2"}, "[4]": {"system": "MCF7 (mammary carcinoma)", "test": "tumor cell growth inhibition (SRB, 72 h drug exposure)", "type": "cell-based, human", "procedure": "as §1, §2"}, "[5]": {"system": "MCF7-R (mammary carcinoma cells 180-fold resistant to adriamycin)", "test": "tumor cell growth inhibition (SRB, 72 h drug exposure)", "type": "cell-based, human", "procedure": "as §1, §2"}, "[6]": {"system": "human colon carcinoma cells HCT-116", "details": "cited from earlier work"}, "[7]": {"system": "multi-drug resistant phenotype human colon carcinoma cells HCT-116/VM", "details": "cited from earlier work"}, "[8]": {"system": "A2780", "test": "growth inhibition by cell counts, 72 h", "type": "cell-based, human", "details": "72 h; read-out: A2780 IC50", "procedure": "(§3) Cells were plated in 6-well flat bottom plates (Falcon, Lincoln Park, N.J.) at a concentration of 10^5 cells ml in complete medium. After 24 h, the medium was replaced with media containing the test substances. Control cells were treated with vehicle alone. Cells were then washed twice and cultures maintained up to 72 h in complete medium (without removing the test substances). At this time point quadruplicate counts of triplicate cultures were performed. To calculate the growth inhibition effect, three independent experiments were performed for each test substance/cell line. The IC50 values were then calculated by fitting the concentration-effect curve data obtained in the three experiments with the sigmoid-Emax model using nonlinear regression, weighted by the reciprocal of the square of the predicted effect according to the method of Motulsky, H. J. and Ransnas, L. A., FASEB J. 1:365-74 (1987)."}, "[9]": {"system": "DU-145", "test": "growth inhibition by cell counts, 72 h", "type": "cell-based, human", "details": "72 h; read-out: DU-145 IC50", "procedure": "as §3"}, "[10]": {"system": "MCF-7 ADRr", "test": "growth inhibition by cell counts, 72 h", "type": "cell-based, human", "details": "72 h; read-out: MCF-7 ADRr IC50", "procedure": "as §3"}, "[11]": {"system": "MCF-7 wt", "test": "growth inhibition by cell counts, 72 h", "type": "cell-based, human", "details": "72 h; read-out: MCF-7 wt IC50", "procedure": "as §3"}, "[12]": {"system": "NCI-H23", "test": "growth inhibition by cell counts, 72 h", "type": "cell-based, human", "details": "72 h; read-out: NCI-H23 IC50", "procedure": "as §3"}, "[13]": {"system": "PC-3", "test": "growth inhibition by cell counts, 72 h", "type": "cell-based, human", "details": "72 h", "procedure": "as §3"}, "[14]": {"system": "WiDr", "test": "growth inhibition by cell counts, 72 h", "type": "cell-based, human", "details": "read-out: WiDr IC50", "procedure": "as §3"}, "[15]": {"system": "mammary adenocarcinoma MA17/A", "test": "oral administration to MA17/A tumor-bearing mice", "type": "in vivo, C3H/HeN female mice", "design": "key to Responses (activity rating): A = active; HA = highly active", "procedure": "(§4) The efficacy of the test compounds on solid tumors in vivo was determined experimentally according to the following general experimental protocol:\n(§5) The mice subjected to the experiment were subcutaneously grafted bilaterally with 30 to 60 mg of a tumor fragment on day zero. Mice bearing tumors were mixed before being subjected to the various treatments and controls. In the case of treatment of advanced tumors, tumors were allowed to develop to the desired size, and mice having insufficiently developed tumors were eliminated. The selected mice were distributed at random to undergo the treatments and controls. Mice not bearing tumors may also be subjected to the same treatments as the tumor-bearing mice in order to be able to dissociate the toxic effect from the specific effect on the tumor. Chemotherapy generally began from 3 to 22 days after grafting, depending on the type of tumor, and the mice were observed every day. The different mice groups were weighed 3 or 4 times a week until the maximum weight loss was attained (nadir), and the groups were then weighed at least once a week until the end of the trial.\n(§6) The tumors were measured 2 or 3 times a week until the tumor reached approximately 2 grams, or until the animal died, if this occurred before the tumor reached 2 grams. The mice were autopsied when sacrificed.\n(§7) The antitumor activity was determined in accordance with different parameters recorded such as dose (mg/kg), mode of administration, time of administration, cytotoxicity, toxicity and log10 cell kill.\nSB-T-1213 was evaluated in C3H/HeN female mice bearing mammary adenocarcinoma MA17/A with an intermittent schedule of oral administrations. The compound for administration was formulated in 10% ethanol, 10% polysorbate 80, and 80% glucose/5% water.\nSB-T-1213 was administered 3 times a day on 3 and 7 days post tumor implantation. The two highest dosages of 36.4 and 22.6 mg/kg/adm. were toxic, producing 5/5 drug related deaths (DD) and 20% body weight loss, respectively. However, the highest nontoxic dose of 14 mg/kg/adm. (total dose of 84 mg/kg), produced 8.4% body weight loss at nadir, 4 days post therapy. […] One of five mice was a tumor-free survivor (TFS) on day 94 post tumor implantation with this dosage. Two lower dosages of 8.7 and 5.4 mg/kg/adm. also maintained activity, having a log10 cell kill of greater than 3 and of 2.5, respectively."}, "[16]": {"system": "B16 melanoma", "test": "intravenous administration to mice bearing B16 melanoma", "type": "in vivo, B6D2F1 female mice", "design": "key to Responses (activity rating): A = active; HA = highly active", "procedure": "as §4, §5, §6, §7\nSB-T-1213, SB-T-121303, SB-T-121304 and SB-T-1250 were evaluated in B6D2F1 female mice bearing B16 melanoma. The general experimental protocol was as described above. The compounds evaluated were administered intravenously (iv) on an intermittent schedule on days 3, 5, and 7 post tumor implantation. With the exception of SB-T-1250, solutions of the compounds for administration were prepared in 5% ethanol, 5% polysorbate 80, and 90% glucose 5% water."}, "[17]": {"system": "docetaxel-resistant melanoma, B16/TXT", "test": "intravenous administration to B16/TXT melanoma-bearing mice", "type": "in vivo, B6D2F1 female mice", "design": "key to Responses (activity rating): A = active; HA = highly active", "details": "for T/C / log10 cell kill: days 3, 5, 7", "procedure": "as §4, §5, §6, §7\nSB-T-1213, SB-T-121303, SB-T-121304 and SB-T-1250 were evaluated in B6D2F1 female mice bearing the docetaxel-resistant melanoma, B16/TXT. The general experimental protocol was as described above. The compounds evaluated were administered intravenously on an intermittent schedule on days 3, 5, and 7 post tumor implantation."}}, "note": "“And” between values parts separate entries of the source, which are not always exact repeats. Identical values can stand only once. Like-named read-outs stand apart in the source and are kept apart here."}
{"smiles": "CC(=O)OC1C(=O)C2(C)C(O)CC3OCC3(OC(C)=O)C2C(OC(=O)c2ccccc2)C2(O)CC(OC(=O)C(O)C(C=C(C)C)NC(=O)c3ccccc3)C(C)=C1C2(C)C", "note": "(centres unmarked) [RAH-1, 3′-dephenyl-3′-isobutenylpaclitaxel]", "values": [{"measurement": "IC50", "setting": "[1]", "value": 1.4, "unit": "nM"}, {"measurement": "IC50", "setting": "[2]", "value": 0.45, "unit": "nM"}, {"measurement": "IC50", "setting": "[3]", "value": 0.96, "unit": "nM"}, {"measurement": "IC50", "setting": "[4]; 72 h drug exposure, Table 1, read-out: MCF7 (breast) IC50", "value": 0.54, "unit": "nM"}, {"measurement": "IC50", "setting": "[5]; 72 h drug exposure, Table 1", "value": 113, "unit": "nM"}, {"measurement": "activity against MCF7-R in words", "setting": "[5]; one order of magnitude weaker than Taxoid Ia", "value": "only marginal activity"}, {"measurement": "times better activity than docetaxel", "setting": "[6]", "value": 7, "unit": "times"}, {"measurement": "times better activity than paclitaxel", "setting": "[6]", "value": 4, "unit": "times"}, {"measurement": "times better activity than docetaxel", "setting": "[7]", "value": 9, "unit": "times"}, {"measurement": "times better activity than paclitaxel", "setting": "[7]", "value": "about 20 times"}]}
{"smiles": "CCC(=O)OC1C(=O)C2(C)C(O)CC3OCC3(OC(C)=O)C2C(OC(=O)c2ccccc2)C2(O)CC(OC(=O)C(O)C(C=C(C)C)NC(=O)OC(C)(C)C)C(C)=C1C2(C)C", "note": "(centres unmarked) [Taxoid Ib, 3′-Dephenyl-3′-(2-methyl-1-propenyl)-10-propanoyldocetaxel]", "values": [{"measurement": "IC50", "setting": "[4]; Table 2, read-out: MCF7 IC50", "value": 0.21, "unit": "nM"}, {"measurement": "IC50", "setting": "[5]; Table 2", "value": 2.16, "unit": "nM"}, {"measurement": "IC50", "setting": "[8]", "value": 1.77, "unit": "nM"}, {"measurement": "IC50", "setting": "[9]", "value": 0.3, "unit": "nM"}, {"measurement": "IC50", "setting": "[10]", "value": 8, "unit": "nM"}, {"measurement": "IC50", "setting": "[11]", "value": 0.9, "unit": "nM"}, {"measurement": "IC50", "setting": "[12]", "value": 0.7, "unit": "nM"}, {"measurement": "IC50", "setting": "[13]", "value": 0.3, "unit": "nM"}, {"measurement": "IC50", "setting": "[14]", "value": 0.4, "unit": "nM"}, {"measurement": "Responses (activity rating)", "setting": "[15]; 8.7 mg/kg/adm.", "value": "A"}, {"measurement": "tumor-free survivors (TFS)", "setting": "[15]; 8.7 mg/kg/adm.", "value": "1/5"}, {"measurement": "Responses (activity rating)", "setting": "[15]; 14.0 mg/kg/adm.", "value": "HA"}, {"measurement": "tumor-free survivors (TFS)", "setting": "[15]; 14 mg/kg/adm., day 94 post tumor implantation, listed as SB-T-1213, 14 mg/kg", "value": "One of five and 1/5"}, {"measurement": "T/C", "setting": "[15]; 14.0 mg/kg/adm., days 3, 7", "value": 0, "unit": "%"}, {"measurement": "% body weight loss at nadir", "setting": "[15]; 14 mg/kg/adm., days 3, 7, total 84 mg/kg, listed as SB-T-1213", "value": "8.4% and 8.4 (4) %"}, {"measurement": "body weight loss", "setting": "[15]; 22.6 mg/kg/adm., 3 times a day on days 3 and 7", "value": 20, "unit": "%"}, {"measurement": "drug related deaths (DD)", "setting": "[15]; 36.4 mg/kg/adm., 3 times a day on days 3 and 7", "value": "5/5"}, {"measurement": "highest nontoxic dose", "setting": "[15]; 3 times a day on days 3 and 7", "value": 14, "unit": "mg/kg/adm."}, {"measurement": "Responses (activity rating)", "setting": "[16]; 4.5 mg/kg/adm.", "value": "A"}, {"measurement": "log10 cell kill", "setting": "[16]; 4.5 mg/kg/adm., days 3, 5, 7", "value": 1.6}, {"measurement": "Responses (activity rating)", "setting": "[16]; 7.3 mg/kg/adm.", "value": "A"}, {"measurement": "log10 cell kill", "setting": "[16]; 7.3 mg/kg/adm., days 3, 5, 7", "value": 1.8}, {"measurement": "Responses (activity rating)", "setting": "[16]; 11.8 mg/kg/adm.", "value": "HA"}, {"measurement": "T/C", "setting": "[16]; 11.8 mg/kg/adm., days 3, 5, 7", "value": 0, "unit": "%"}, {"measurement": "log10 cell kill", "setting": "[16]; 11.8 mg/kg/adm., days 3, 5, 7", "value": 3}, {"measurement": "% body weight loss at nadir", "setting": "[16]; 11.8 mg/kg/adm., days 3, 5, 7, listed as SB-T-1213, 11.8 mg/kg", "value": "15.3% and 15.3 (3) %"}, {"measurement": "drug related deaths (DD)", "setting": "[16]; 19 mg/kg/adm., days 3, 5, 7", "value": "⅕"}, {"measurement": "highest nontoxic dose", "setting": "[16]; days 3, 5, 7", "value": 11.8, "unit": "mg/kg/adm."}, {"measurement": "T/C", "setting": "[17]; 4.5 mg/kg/adm.", "value": 74, "unit": "%"}, {"measurement": "Responses (activity rating)", "setting": "[17]; 7.3 mg/kg/adm.", "value": "A"}, {"measurement": "log10 cell kill", "setting": "[17]; 7.3 mg/kg/adm.", "value": 1}, {"measurement": "Responses (activity rating)", "setting": "[17]; 11.8 mg/kg/adm.", "value": "A"}, {"measurement": "log10 cell kill", "setting": "[17]; 11.8 mg/kg/adm.", "value": 1}, {"measurement": "Responses (activity rating)", "setting": "[17]; 19 mg/kg/adm.", "value": "A"}, {"measurement": "T/C", "setting": "[17]; 19 mg/kg/adm.", "value": 11, "unit": "%"}, {"measurement": "log10 cell kill", "setting": "[17]; 19 mg/kg/adm.", "value": 1.6}, {"measurement": "% body weight loss at nadir", "setting": "[17]; 19 mg/kg/adm., days 3, 5, 7, listed as SB-T-1213, 19 mg/kg", "value": "17.1% and 17.1 (4) %"}]}
